Experimental data from patent publication US12129246B1, “Hydroquinazoline derivatives for the treatment of a disease or disorder” (Novartis AG, priority 2023, dated 2024).

Molecular target: T1, human NPR1 (Homo sapiens, UniProt P16066)
T1 construct: host or cells: CHO-K1
T1 sequence (P16066 33-1061): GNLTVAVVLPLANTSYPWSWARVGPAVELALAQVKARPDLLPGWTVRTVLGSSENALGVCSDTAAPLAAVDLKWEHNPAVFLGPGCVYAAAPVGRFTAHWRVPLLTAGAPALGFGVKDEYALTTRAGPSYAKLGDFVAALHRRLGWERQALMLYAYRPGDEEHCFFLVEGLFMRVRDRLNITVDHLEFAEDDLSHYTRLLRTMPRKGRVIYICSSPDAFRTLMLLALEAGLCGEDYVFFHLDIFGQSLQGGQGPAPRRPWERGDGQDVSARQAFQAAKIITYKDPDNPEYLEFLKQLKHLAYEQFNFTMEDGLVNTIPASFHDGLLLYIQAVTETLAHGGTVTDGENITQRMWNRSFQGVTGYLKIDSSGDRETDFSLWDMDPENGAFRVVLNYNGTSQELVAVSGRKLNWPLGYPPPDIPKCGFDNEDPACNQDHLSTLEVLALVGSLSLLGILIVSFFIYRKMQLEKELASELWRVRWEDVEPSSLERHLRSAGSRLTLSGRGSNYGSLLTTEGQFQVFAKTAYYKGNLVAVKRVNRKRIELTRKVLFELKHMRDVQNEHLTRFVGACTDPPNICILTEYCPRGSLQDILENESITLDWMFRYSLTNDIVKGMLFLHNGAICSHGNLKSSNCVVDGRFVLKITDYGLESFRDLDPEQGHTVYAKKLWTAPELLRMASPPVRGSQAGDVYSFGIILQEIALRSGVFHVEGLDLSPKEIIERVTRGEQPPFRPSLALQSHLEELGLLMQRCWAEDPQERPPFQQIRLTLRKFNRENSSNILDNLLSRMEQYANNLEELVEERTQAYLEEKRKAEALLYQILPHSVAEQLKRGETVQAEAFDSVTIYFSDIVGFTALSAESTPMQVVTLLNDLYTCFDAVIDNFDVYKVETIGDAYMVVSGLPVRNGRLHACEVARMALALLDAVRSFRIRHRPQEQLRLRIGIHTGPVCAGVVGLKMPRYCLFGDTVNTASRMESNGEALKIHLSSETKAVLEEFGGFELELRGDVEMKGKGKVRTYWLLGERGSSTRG
Assay: Cellular cGMP production assay, human NPR1 expressing CHO-K1 cells (CisBio HTRF)
Type: cell-based
Conditions: for AC50: cGMP production, 30 min at 37° C., 12-point dose-response from 30 μM; for Human NPR1 Amax (% of ANP): maximum cGMP production as percentage of the maximum cGMP produced with ANP
Procedure: Cellular cGMP is a major second messenger that mediates cell activities and is synthesized by activated NPR1 triggered by binding of the natural ligand ANP. […] The assay was performed according to manufacturer's instructions with minor deviations. […] All compound stocks were diluted in PBS+0.1% BSA at 2-fold the final assay concentration. After addition of 10 μL/well of assay buffer (PBS+0.1% BSA+1 mM IBMX) and 10 μL/well of the compounds in different concentrations (12-point dose-response with 3-fold dilutions from a top concentration of 30 μM), the plate was incubated for 30 min at 37° C. to allow for cGMP production. In parallel, a standard curve using a calibrator (contained in the kit) was generated. The cells were lysed and a mix of cGMP-d2 and anti-cGMP-cryptate was added and incubated for 1 h at room temperature. The readout was performed using an Envision plate reader (PerkinElmer) with an excitation wavelength of 317 nm and an emission wavelength of 665 nm. cGMP concentration (Delta F [° %]) was calculated according to the following formulae: […]

Row | Compound | AC50 [nM] | Human NPR1 Amax (% of ANP)
1 | CC[C@@H](Nc1nc2c(c(N[C@@H](CN3CCCC(CF)C3)c3cnn(C)c3)n1)C[C@H](c1cccc(F)c1)CC2)[C@H]1CC[C@H](C(=O)O)CC1 (stereo partly drawn) [Compound 175, (1R,4r)-4-((1R)-1-(((6R)-4-(((1R)-2-(3-(fluoromethyl)piperidin-1-yl)-1-(1-methyl-1H-pyrazol-4-yl)ethyl)amino)-6-(3-fluorophenyl)-5,6,7,8-tetrahydroquinazolin-2-yl)amino)propyl)cyclohexane-1-carboxylic acid] | 89 | 109.91 % of ANP
2 | CC[C@H]([C@H]1CC[C@H](C(=O)O)CC1)N(C)c1nc2c(c(N[C@@H](CN3CCC[C@H]4C[C@H]43)c3cnn(C)c3)n1)C[C@H](c1ccccc1)CC2 [Compound 176, (1R,4r)-4-((R)-1-(((R)-4-(((R)-2-((1R,6S)-2-azabicyclo[4.1.0]heptan-2-yl)-1-(1-methyl-1H-pyrazol-4-yl)ethyl)amino)-6-phenyl-5,6,7,8-tetrahydroquinazolin-2-yl)(methyl)amino)propyl)cyclohexane-1-carboxylic acid] | 359 | 107.70 % of ANP
3 | CC[C@H]([C@H]1CC[C@H](C(=O)O)CC1)N(C)c1nc2c(c(N[C@@H](CN3C[C@H](C)C[C@@H](OC)C3)c3cnn(C)c3)n1)C[C@H](c1ccccc1)CC2 [Compound 183, (1R,4r)-4-((R)-1-(((R)-4-(((R)-2-((3R,5R)-3-methoxy-5-methylpiperidin-1-yl)-1-(1-methyl-1H-pyrazol-4-yl)ethyl)amino)-6-phenyl-5,6,7,8-tetrahydroquinazolin-2-yl)(methyl)amino)propyl)cyclohexane-1-carboxylic acid] | 380 | 98.57 % of ANP
4 | CC[C@H]([C@H]1CC[C@H](C(=O)O)CC1)N(C)c1nc2c(c(N[C@@H](CN3C[C@@H](C)C[C@H](OC)C3)c3cnn(C)c3)n1)C[C@H](c1ccccc1)CC2 [Compound 184, (1R,4r)-4-((R)-1-(((R)-4-(((R)-2-((3S,5S)-3-methoxy-5-methylpiperidin-1-yl)-1-(1-methyl-1H-pyrazol-4-yl)ethyl)amino)-6-phenyl-5,6,7,8-tetrahydroquinazolin-2-yl)(methyl)amino)propyl)cyclohexane-1-carboxylic acid] | 940 | 103.67 % of ANP
5 | CC[C@H]([C@H]1CC[C@H](C(=O)O)CC1)N(C)c1nc2c(c(N[C@@H](CN3CCC[C@H](C)C3)c3cn(C)nc3F)n1)C[C@H](c1ccccc1)CC2 (stereo in doubt) [Compound 185, (1R,4r)-4-((R)-1-(((R)-4-(((S)-1-(3-fluoro-1-methyl-1H-pyrazol-4-yl)-2-((S)-3-methylpiperidin-1-yl)ethyl)amino)-6-phenyl-5,6,7,8-tetrahydroquinazolin-2-yl)(methyl)amino)propyl)cyclohexane-1-carboxylic acid] | 201 | 98.01 % of ANP
6 | CC[C@H]([C@H]1CC[C@H](C(=O)O)CC1)N(C)c1nc2c(c(N[C@@H](CN3CCC[C@@H]4C[C@@H]43)c3cnn(C)c3)n1)C[C@H](c1ccccc1)CC2 [Compound 177, (1R,4r)-4-((R)-1-(((R)-4-(((R)-2-((1S,6R)-2-azabicyclo[4.1.0]heptan-2-yl)-1-(1-methyl-1H-pyrazol-4-yl)ethyl)amino)-6-phenyl-5,6,7,8-tetrahydroquinazolin-2-yl)(methyl)amino)propyl)cyclohexane-1-carboxylic acid] | 488 | 107.75 % of ANP

The remaining lines, values ahead:

Row | AC50 [nM] | Human NPR1 Amax (% of ANP) | Compound
7 | 2710 | 97.72 % of ANP | CC[C@H]([C@H]1CC[C@H](C(=O)O)CC1)N(C)c1nc2c(c(N[C@@H](CN3CC[C@@H](O)[C@H](C)C3)c3cnn(C)c3)n1)C[C@H](c1ccccc1)CC2 [Compound 179, (1R,4r)-4-((R)-1-(((R)-4-(((R)-2-((3R,4R)-4-hydroxy-3-methylpiperidin-1-yl)-1-(1-methyl-1H-pyrazol-4-yl)ethyl)amino)-6-phenyl-5,6,7,8-tetrahydroquinazolin-2-yl)(methyl)amino)propyl)cyclohexane-1-carboxylic acid]
8 | 465 | 86.52 % of ANP | CC[C@H]([C@H]1CC[C@H](C(=O)O)CC1)N(C)c1nc2c(c(N[C@@H](CN3CCCC4(CC4)C3)c3cnn(C)c3)n1)C[C@H](c1ccccc1)CC2 [Compound 180, (1R,4r)-4-((R)-1-(methyl((R)-4-(((R)-1-(1-methyl-1H-pyrazol-4-yl)-2-(5-azaspiro[2.5]octan-5-yl)ethyl)amino)-6-phenyl-5,6,7,8-tetrahydroquinazolin-2-yl)amino)propyl)cyclohexane-1-carboxylic acid]
9 | 250 | 110.06 % of ANP | CC[C@H]([C@H]1CC[C@H](C(=O)O)CC1)N(C)c1nc2c(c(N[C@@H](CN3CCC[C@@](C)(O)C3)c3cnn(C)c3)n1)C[C@H](c1ccccc1)CC2 [Compound 182, (1R,4r)-4-((R)-1-(((R)-4-(((R)-2-((R)-3-hydroxy-3-methylpiperidin-1-yl)-1-(1-methyl-1H-pyrazol-4-yl)ethyl)amino)-6-phenyl-5,6,7,8-tetrahydroquinazolin-2-yl)(methyl)amino)propyl)cyclohexane-1-carboxylic acid]
10 | 1810 | 101.57 % of ANP | CC[C@H]([C@H]1CC[C@H](C(=O)O)CC1)N(C)c1nc2c(c(N[C@@H](CN3CC[C@@H](OC)C3)c3cnn(C)c3)n1)C[C@H](c1ccccc1)CC2 [Compound 181, (1R,4r)-4-((R)-1-(((R)-4-(((R)-2-((R)-3-methoxypyrrolidin-1-yl)-1-(1-methyl-1H-pyrazol-4-yl)ethyl)amino)-6-phenyl-5,6,7,8-tetrahydroquinazolin-2-yl)(methyl)amino)propyl)cyclohexane-1-carboxylic acid]
11 | 406 | 110.66 % of ANP | CC[C@H]([C@H]1CC[C@H](C(=O)O)CC1)N(C)c1nc2c(c(N[C@@H](CN3CCC[C@](C)(O)C3)c3cnn(C)c3)n1)C[C@H](c1ccccc1)CC2 [Compound 186, (1R,4r)-4-((R)-1-(((R)-4-(((R)-2-((S)-3-hydroxy-3-methylpiperidin-1-yl)-1-(1-methyl-1H-pyrazol-4-yl)ethyl)amino)-6-phenyl-5,6,7,8-tetrahydroquinazolin-2-yl)(methyl)amino)propyl)cyclohexane-1-carboxylic acid]
12 | 362 | 112.78 % of ANP | CC[C@H]([C@H]1CC[C@H](C(=O)O)CC1)N(C)c1nc2c(c(N[C@@H](CN3CCC[C@](O)(CC)C3)c3cnn(C)c3)n1)C[C@H](c1ccccc1)CC2 [Compound 178, (1R,4r)-4-((R)-1-(((R)-4-(((R)-2-((R)-3-ethyl-3-hydroxypiperidin-1-yl)-1-(1-methyl-1H-pyrazol-4-yl)ethyl)amino)-6-phenyl-5,6,7,8-tetrahydroquinazolin-2-yl)(methyl)amino)propyl)cyclohexane-1-carboxylic acid]
